According to US7342026B2, “Substituted quinolines for the treatment of protozoa and retrovirus co-infections” (priority 2001, dated 2008):
In brackets after ≈: the same amount, converted by molar mass. Read-outs that look alike come from different tables or passages of the source. Marks after values point to notes of the source that are not given here.

Experiments:
[1] = test system: amastigotes of Trypanosoma cruzi (Tulahuen strain); test: Amastigotes of Trypanosoma cruzi in peritoneal macrophages; assay type: cell-based; conditions: for IC50: read-out: T. cruzi (amastigotes) IC50; for activity on Trypanosoma cruzi (in words): comment on Table III
Method: c) Tests on Amastigotes of Trypanosoma cruzi
Peritoneal macrophages from Balb/c mice are collected, washed in Dulbecco PBS and then distributed in 96-well plates in a proportion of 3×10^4 cells per 100 μl and per well, in RPMI-1640 medium supplemented with 10% FCS and antibiotics.
After 24 hours at 37° C., 10^5 trypomastigotes are added with serial 2-fold dilutions of the various substituted quinolines. The cultures are then incubated at 37° C. for 4 days in a humid atmosphere (5% CO2-95% air). After fixing, and then staining with Giemsa, the antiparasitic activity is assessed by counting the extracellular trypomastigotes and the intracellular amastigotes.

[2] = test system: amastigotes of Leishmania amazonensis; test: Amastigotes of Leishmania amazonensis in infected macrophages (leishmanicidal activity); assay type: cell-based; conditions: for L. amazonensis IC100: 100% inhibitory concentration, intracellular amastigotes in BALB/c macrophages, 30 hours after addition; for activity on Leishmania amazonensis (in words): comment on Table II
Method: The strain of Leishmania amazonensis is maintained by successive passages in “nude” mice (nu/nu). The amastigotes are isolated from the lesions developed on the footpads, and purified according to the method described by Antoine et al. (Parasitology, 1989, 99: 1).
The leishmanicidal activity of the quinolines is determined 30 hours after addition of the solutions of substituted quinolines. It is based on a more or less large, or even complete, decrease, firstly, in the size of the parasitophorous vacuoles and, secondly, in the number of live intracellular amastigotes.

[3] = test system: circulating forms of Trypanosoma brucei (S427 strain); test: microbe, parasite or virus in culture; assay type: cell-based; conditions: for IC50: read-out: T. brucei IC50; for activity on Trypanosoma brucei (in words): comment on Table III
Method: d) Tests on the Circulating Forms of Trypanosoma brucei
The circulating forms of Trypanosoma brucei are cultured in MEM medium (minimum essential medium; GIBCO-BRL, No. 072-1100) to which Earle's salts have been added and supplemented with 1 mg/ml of glucose, 2.2 mg/ml of NaHCO3, 10 mM of Hepes, 2 mM of sodium pyruvate, 0.2 mM of 2-mercaptoethanol, 0.1 mM of hypoxanthine and 15% of inactivated horse serum.
The cultures are maintained at 37° C. in 24-well plates in a humid atmosphere (5% CO2-95% air) and the passages are carried out every 2 or 3 days at a density of 10^3 to 10^5 trypomastigotes per ml. The activity of the substituted quinolines is tested in triplicate in 96-well plates in which 10^3 parasites originating from an exponential growth phase are distributed per well, in the presence of the various solutions of substituted quinolines in a final volume of 200 μl. After culturing for 48 hours, the trypanocidal activity is assessed by counting, with a Neubauer cell, the number of live parasites per well.

macrophages = test: Cytotoxicity on macrophages; assay type: cell-based, BALB/c mice
Method: The macrophages, which will be used as host cells for the leishmania, are obtained after multiplication and differentiation of medullary precursors from BALB/c mice. This culture is prepared in the presence of supernatant from a conditioned line of fibroblasts L-929, and source of “Macrophage Colony Stimulating Factor”. After culturing for 5 days on a hydrophobic support, the adherent macrophages are recovered and then distributed in flat-bottomed 96-well plates for cell culture, in a proportion of 4×10^4 macrophages per well. The macrophages are then infected with purified amastigotes (4 parasites per macrophage) and incubated at 34° C. for 24 hours to allow development of parasitophorous vacuoles and multiplication of parasites. Under these conditions, more than 95% of the macrophages are infected.
The solutions of the substituted quinolines to be tested are prepared in DMSO before being added, at various concentrations, to the infected macrophage cultures.
The results obtained with the substituted quinolines, assigned Nos. 1, 2, 4, 6 to 11, 13 to 20, 23 to 34, 37 and 38 in Table I, are given in Table II below as regards their activity on the amastigotes of Leishmania amazonensis, of Leishmania donovani and of Leishmania infantum, and also their cytotoxicity with respect to the macrophages.

[4] = test system: Leishmania infantum (MHOM/FR/91/LEM2259V); test: Balb/c mice infected with visceral leishmaniasis (Leishmania infantum); assay type: in vivo; conditions: 10 days, quinolines oral 25 mg/kg/day, Glucantime subcutaneous 100 mg/kg/day; for Number of parasites in the liver per gram / Number of parasites in the spleen per gram: n=8; for % reduction in the number of parasites in the liver / % reduction in the number of parasites in the spleen: versus without treatment
Method: b) Tests Carried on Laboratory Animals Infected with Visceral Leishmaniasis (Leishmania infantum): 1/Laboratory Animals and Parasites
The Balb/c mice were infected with Leishmania infantum parasites at the promastigote stage (reference: MHOM/FR/91/LEM2259V), a strain isolated from a patient carrying AIDS. This strain is maintained in Schneider's drosophila culture medium (Gibco, USA) supplemented with 20% of fetal calf serum. The infectious promastigotes are cultured for 7 days and then counted. Each mouse is then infected intravenously with 0.2 ml of culture medium containing 10^7 promastigotes.
Counting of amastigotes forms in the liver and spleen.
After the treatments have been stopped and the animals sacrificed, the viscera, liver and spleen are weighed and collected in a Petri dish. Each organ is mounted several times on a degreased glass slide which, fixed and stained by the May-Grünwald-Giemsa technique, makes it possible to determine the number of amastigote forms per 500 nucleated cells.
The results are expressed in Table VI.

[5] = test system: amastigotes of Leishmania donovani (MHOM/ET/67/L82); test: microbe, parasite or virus in culture; assay type: cell-based; conditions: for IC50: Leishmania donovani, Peritoneal macrophage, in Mus musculus, 48 h, read-out: L. donovani IC50
Excerpt: (§1) b) Tests on Amastigotes of Leishmania donovani and Leishmania infantum
(§2) The Leishmania donovani and Leishmania infantum strains are maintained by successive passages in golden hamsters. The amastigotes are isolated from the spleens of the infected hamsters and brought into contact with the purified macrophages.
(§3) Twenty-four hours after intraperitoneal injection of Balb/c mice with a 2% starch solution, the peritoneal macrophages of these mice are collected, washed in Dulbecco PBS and then distributed in Lab-tek® culture chambers, in a proportion of 4×10^4 cells per 100 μl per well in RPMI-1640 medium supplemented with 10% of FCS and antibiotics. After 24 hours at 37° C. in a humid atmosphere (5% CO2), the macrophages are brought into contact with purified amastigotes (3 parasites per macrophage) in a final volume of 200 μl for 4 hours. The medium is then removed in order to eliminate the extracellular parasites, and replaced with 100 μl of fresh medium.
(§4) Twenty-four hours after the beginning of infection, the solutions of substituted quinolines prepared as described in paragraph a) above are added and the leishmanicidal activity is determined after 48 hours by counting the number of parasites still alive in the fixed and Giemsa-stained cells.

[6] = test system: amastigotes of Leishmania infantum (IPZ229/1/89); test: microbe, parasite or virus in culture; assay type: cell-based; conditions: for IC50: Leishmania infantum, Peritoneal macrophage, in Mus musculus, 48 h, read-out: L. infantum (IPZ229/1/89) IC50
Excerpt: as §1, §2, §3, §4

[7] = test system: amastigotes of Leishmania infantum (MHOM/MA(BE)67); test: Amastigotes of Leishmania infantum (MHOM/MA(BE)67) in peritoneal macrophages; assay type: cell-based; conditions: for IC50: Leishmania infantum, Peritoneal macrophage, in Mus musculus, 48 h, read-out: L. infantum (MHOM/MA (BE) 67) IC50; for activity on the MHOM/MA(BE)67 strain of Leishmania infantum (in words): comment on Table II
[8] = test system: Leishmania amazonensis (IFLA/BR/67/PH8); conditions: 15 days, quinolines oral 25 mg/kg/day, Glucantime subcutaneous 100 mg/kg (28 mg Sbv/kg); for Mean of the number of parasites in the lesion per gram / Weight of lesions (mean ± standard deviation): n=8; for % reduction in the number of parasites in the lesion: versus untreated controls
Excerpt: a) Tests Carried Out on Laboratory Animals Infected with Cutaneous Leishmaniasis (Leishmania amazonensis):
The experimental animals are male or female approximately 6- to 8-week-old Balb/c mice weighing 18-24 g, subsequently reared for reproduction in the animal house of the Instituto de Investigaciones en Ciencias de la Salud (IICS), Asuncion, Paraguay. Golden hamsters (Mesocricetus auratus) are used to maintain these strains and as reservoirs for L. amazonensis parasites.
The Balb/c mice are infected with Leishmania amazonensis parasites, at the amastigote stage of the reference strain IFLA/BR/67/PH8, subcutaneously in the ventral pad of the right rear foot, the left foot remaining as a control. The amount of amastigotes inoculated is 2×10^6 amastigotes in 50 μl of phosphate buffer saline (PBS) for L. amazonensis.
The treatments begin once the infection is well established, mainly in general 5 to 6 weeks after inoculation of the L. amazonensis amastigotes. The reference medicinal product chosen is Glucantime® or meglumine antimoniate from Aventis (France).
The untreated control mice are given 50 μl of a solution of Tween 80 with PBS.
Measurement of the lesion: the diameters of the lesions on the infected foot and on the control foot are measured using a micrometer with 1/10 mm graduations, once a week for the duration of the experiment. The first measurements begin 48 hours after inoculation of the parasites. Calculating the difference in the two measurements gives the thickness of the lesion.
The 5 ml of puree obtained are centrifuged twice. The layer containing the amastigotes is subjected to counting of the number of parasites using a Neubauer cell. Five counts are performed on each amastigote layer. The number of amastigote forms is determined using the Stauber formula which takes into account the weight of the lesion: A/N×W×coefficient of the Neubauer cell • A=number of amastigotes, N=number of nuclei W=weight of the lesion
The results are expressed by the calculation of the arithmetic mean of the diameters of the lesions measured once a week and, at the end of the protocol, after sacrifice of the mice, of the weights of the lesions and of the number of amastigotes. A Student's test (t-test) is used for the statistical analysis of all the data. The comparison is made between “control” groups with a “treatment” group per pair. A value of P<0.05 is considered to be statistically significant.

[9] = Balb/c peritoneal macrophages, 4 days
[10] = circulating forms, culturing for 48 hours
[11] = Trypanosoma cruzi, TULAHUEN, Peritoneal macrophage, in Mus musculus, 96 h

Row | Molecule | IC50 [1, 9] [µM] | L. amazonensis IC100 [2] [µg/mL] | IC50 [3, 10] [µM] | Cytotoxicity on macrophages (macrophages; macrophages from BALB/c mice) [µg/mL] | also measured
1 | COC(=O)/C=C/c1ccc2cc(C)ccc2n1 [Quinoline 27] | 25 | 50 |  |  | 
2 | OC/C=C/c1ccc2ccccc2n1 [Quinoline 10] | 4 |  | > 32 |  | Cytotoxicity on macrophages (macrophages; macrophages from BALB/c mice, listed as 10): 6.25 µg/mL; L. amazonensis IC100 ([2]; listed as 10): 1.56 µg/mL
3 | C(=C\c1ccc2ccccc2n1)/c1ccc2ccccc2n1 [Quinoline 35] | > 32 |  | 24 |  | 
4 | COC(=O)/C=C/c1ccc2ccccc2n1 [Quinoline 23, methyl E-3-(2-quinolyl)-2-propenoate] |  | 12.5 |  |  | IC50 [1, 11]: 15 µM; activity on Trypanosoma cruzi (in words) [1]: less advantageous; Number of parasites in the liver per gram [4]: 1.8 × 10^7 d per gram; Number of parasites in the spleen per gram [4]: 1.5 × 10^6 c, f per gram; % reduction in the number of parasites in the liver [4]: −60.0%; % reduction in the number of parasites in the spleen [4]: −64.3%; IC50 ([3]; Trypanosoma brucei, 48 h): 16 µM; activity on Trypanosoma brucei (in words) [3]: less advantageous; Cytotoxicity on macrophages (macrophages; BALB/c, mouse): 50 µg/mL; IC50 [5]: 3.3 to 30 mg/L (≈ 15.5 to 141 µM); activity on Leishmania donovani (in words) ([5]; comment on Table II): marked activity; IC50 [6]: 0.4 to 2.2 mg/L (≈ 1.88 to 10.3 µM); activity on the IPZ229/1/89 strain of Leishmania infantum (in words) ([6]; comment on Table II): marked activity; IC50 [7]: 26 µM; activity on the MHOM/MA(BE)67 strain of Leishmania infantum (in words) [7]: less advantageous; Mean of the number of parasites in the lesion per gram [8]: 3.1 × 10^6 per gram; Weight of lesions (mean ± standard deviation) [8]: 0.059 ± 0.010 g; % reduction in the number of parasites in the lesion [8]: −88%**; activity on Leishmania amazonensis (in words) [2]: marked activity
5 | Br/C=C/c1ccc2ccccc2n1 [Quinoline 29, E-1-bromo-2-(2-quinolyl)-ethene] |  | 0.7812 |  | 3.12 | IC50 [1, 11]: < 0.5 µM; IC50 ([3]; Trypanosoma brucei, 48 h): 1 µM; IC50 [7]: 2 µM
6 | CC/C=C/c1ccc2ccccc2n1 [Quinoline 6, E-1-(2-quinolyl)butene] | > 32 | 6.25 | 17 | 25 | Mean of the number of parasites in the lesion per gram [8]: 6.9 × 10^6 per gram; Weight of lesions (mean ± standard deviation) [8]: 0.101 ± 0.100 g; % reduction in the number of parasites in the lesion [8]: −73%
7 | CC(=O)Cc1ccc2ccccc2n1 [Quinoline 13] | > 32 | 25 | 10 | 25 | 
8 | Cc1ccc2nc(C=O)ccc2c1 [Quinoline 5] | > 32 |  |  |  | 
9 | C#Cc1ccc2ccccc2n1 [Quinoline 1, 1-(2-quinolyl)acetylene] |  |  |  |  | Number of parasites in the liver per gram [4]: 1.8 × 10^7 c per gram; Number of parasites in the spleen per gram [4]: 2.2 × 10^6 b per gram; % reduction in the number of parasites in the liver [4]: −60.0%; % reduction in the number of parasites in the spleen [4]: −47.6%
10 | c1ccc2nc(CCc3ccc4c(c3)OCO4)ccc2c1 [Quinoline 34] | 15 | 50 | 13 | 25 | 
11 | FC(Br)=Cc1ccc2ccccc2n1 [Quinoline 31] |  | 25 |  | 25 | 
12 | BrC(Br)=Cc1ccc2ccccc2n1 [Quinoline 36] | 21 |  | 4 |  | 
13 | meglumine antimoniate [Glucantime, reference compound] |  |  |  |  | Number of parasites in the liver per gram [4]: 1.6 × 10^7 a per gram; Number of parasites in the spleen per gram [4]: 4.4 × 10^6 per gram; % reduction in the number of parasites in the liver [4]: −65.3%; % reduction in the number of parasites in the spleen [4]: +6.0%; Mean of the number of parasites in the lesion per gram [8]: 7.2 × 10^5 per gram; Weight of lesions (mean ± standard deviation) [8]: 0.012 ± 0.010 g; % reduction in the number of parasites in the lesion [8]: −97%
14 | C=Cc1ccc2ccccc2n1 [Quinoline 2, (2-quinolyl)ethylene] |  | 3.12 |  | 6.25 | IC50 [1, 11]: 12 µM; IC50 ([3]; Trypanosoma brucei, 48 h): 13 µM; IC50 [5]: 1.2 to 2.8 mg/L (≈ 7.73 to 18 µM); IC50 [6]: 1.3 mg/L (≈ 8.38 µM); IC50 [7]: > 32 µM
15 | COC(=O)/C=C/C=C/c1ccc2ccccc2n1 [Quinoline 30] | 26 | 12.5 |  | 25 | 
16 | CCCCC/C=C/c1ccc2ccccc2n1 [Quinoline 25] | 11 | 12.5 | 4 | 25 | activity on Trypanosoma cruzi (in words) [1]: advantageous activity; activity on Trypanosoma brucei (in words) [3]: advantageous activity; activity on the MHOM/MA(BE)67 strain of Leishmania infantum (in words) [7]: less active; activity on Leishmania amazonensis (in words) [2]: advantageous activity
17 | Cl/C=C/C#Cc1ccc2ccccc2n1 [Quinoline 24] |  | 10 to 25 |  |  | 
18 | CC(O)Cc1ccc2ccccc2n1 (stereo not drawn) [Quinoline 15] | > 32 |  | 16 |  | 
19 | C/C=C/c1ccc2cccc(O)c2n1 [Quinoline 11] | 19 | 50 | > 32 | 50 | 
20 | OC/C=C/c1ccc2ccccc2n1 [Example 4, E-3-(2-quinolyl)prop-2-en-1-ol] |  | 25 |  | 25 | 
21 | CC(O)Cc1ccc2cccc(O)c2n1 (stereo not drawn) [Quinoline 22] | 16 |  | 16 |  | 
22 | O=C(O)/C=C/c1ccc2ccccc2n1 [Quinoline 19] |  | 12.5 |  | 12.5 | 
23 | C[Si](C)(C)C#Cc1ccc2ccccc2n1 [Example 1, 2-(2-quinolyl)trimethylsilylacetylene] |  | 0.7812 |  | 6.25 | 
24 | CCC(O)c1ccc2ccccc2n1 (stereo not drawn) [Quinoline 17] | > 32 |  | 3 |  | 
25 | CCCCCCCCC#Cc1ccc2ccccc2n1 [Quinoline 32] |  | 12.5 |  | 12.5 | 
26 | BrC#Cc1ccc2ccccc2n1 [Quinoline 28] | > 32 | 12.5 | 5 | 12.5 | 
